Laboratory results: patent US9708334B2, “Substituted 2,4,5,6-tetrahydropyrrolo[3,4-c]pyrazole and 4,5,6,7-tetrahydro-2H-pyrazolo[4,3-c]pyridine compounds as GlyT1 inhibitors” (DART NEUROSCIENCE (CAYMAN) LTD., priority 2014, dated 2017)

molecular target: T1, GlyT1 (Homo sapiens, UniProt P48067); assay: Glycine Transporter 1 (GlyT1) uptake assay, scintillation proximity assay of [14C]-glycine uptake; type: cell-based; conditions: SPA, four parameter logistic fit, read-out: GlyT1 (pIC50) (converted)
T1 construct: expressed in transfected cells
T1 sequence (P48067 1-706): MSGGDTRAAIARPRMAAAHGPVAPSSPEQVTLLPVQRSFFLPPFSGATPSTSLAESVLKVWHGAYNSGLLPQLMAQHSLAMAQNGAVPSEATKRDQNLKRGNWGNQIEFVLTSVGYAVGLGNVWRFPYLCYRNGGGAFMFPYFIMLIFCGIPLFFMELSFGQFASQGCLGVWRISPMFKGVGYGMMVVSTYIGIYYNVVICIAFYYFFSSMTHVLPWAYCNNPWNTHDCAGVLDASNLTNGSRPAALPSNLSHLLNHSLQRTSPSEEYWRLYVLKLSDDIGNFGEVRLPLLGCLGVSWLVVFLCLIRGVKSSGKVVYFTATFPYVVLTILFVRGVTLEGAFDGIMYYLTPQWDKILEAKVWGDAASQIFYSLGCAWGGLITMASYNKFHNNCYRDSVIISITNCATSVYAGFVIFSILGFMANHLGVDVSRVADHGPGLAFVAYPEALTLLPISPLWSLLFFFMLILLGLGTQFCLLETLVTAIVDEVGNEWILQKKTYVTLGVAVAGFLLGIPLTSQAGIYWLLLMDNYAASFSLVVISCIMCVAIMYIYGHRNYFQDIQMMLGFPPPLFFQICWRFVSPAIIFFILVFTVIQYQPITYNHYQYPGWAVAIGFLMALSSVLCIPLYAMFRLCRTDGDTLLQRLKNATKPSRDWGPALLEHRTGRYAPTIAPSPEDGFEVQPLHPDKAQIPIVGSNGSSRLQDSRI
Procedure, shortened: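 [14C]-glycine uptake read by scintillation proximity on a plate counter. IC50 from four-parameter logistic fit of dose-response data.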

Structure (SMILES)	IC50 [nM]
N#Cc1ccc(N2CCC(F)(F)CC2)c(C(=O)N2CCc3nn(-c4ccccc4)cc3C2)c1Cl [Example 502, 2-Chloro-4-(4 4-difluoropiperidin-1-yl)-3-{2-phenyl-2H 4H 5H 6H 7H-pyrazolo[4,3-c]pyridine-5-carbonyl}benzonitrile]	100 to 1000
CC(C)(C)COc1ccc(C#N)c(Cl)c1C(=O)N1CCc2nn(-c3ccccc3)cc2C1 [Example 503, 2-Chloro-4-(2 2-dimethylpropoxy)-3-{2-phenyl-2H 4H 5H 6H 7H-pyrazolo[4,3-c]pyridine-5-carbonyl}benzonitrile]	100 to 1000
N#Cc1ccc(OCC2CC2)c(C(=O)N2CCc3nn(-c4ccccc4)cc3C2)c1Cl [Example 504, 2-Chloro-4-(cyclopropylmethoxy)-3-{2-phenyl-2H 4H 5H 6H 7H-pyrazolo[4,3-c]pyridine-5-carbonyl}benzonitrile]	1000 to 10000
N#Cc1ccc(N2CCOCC2)c(C(=O)N2CCc3nn(-c4ccccc4)cc3C2)c1Cl [Example 505, 2-Chloro-4-(morpholin-4-yl)-3-{2-phenyl-2H 4H 5H 6H 7H-pyrazolo[4,3-c]pyridine-5-carbonyl}benzonitrile]	1000 to 10000
CC1(COc2ccc(C#N)c(Cl)c2C(=O)N2CCc3nn(-c4ccccc4)cc3C2)COC1 [Example 506, 2-Chloro-4-[(3-methyloxetan-3-yl)methoxy]-3-{2-phenyl-2H 4H 5H 6H 7H-pyrazolo[4,3-c]pyridine-5-carbonyl}benzonitrile]	1000 to 10000
CC1(COc2ccc(C#N)c(Cl)c2C(=O)N2CCc3nn(-c4ccccc4)cc3C2)CC1 [Example 507, 2-Chloro-4-[(1-methylcyclopropyl)methoxy]-3-{2-phenyl-2H 4H 5H 6H 7H-pyrazolo[4,3-c]pyridine-5-carbonyl}benzonitrile]	100 to 1000
CC1(COc2ccc(C#N)c(Cl)c2C(=O)N2CCc3nn(-c4ccc(F)cc4)cc3C2)CC1 [Example 508, 2-Chloro-3-[2-(4-fluorophenyl)-2H 4H 5H 6H 7H-pyrazolo[4,3-c]pyridine-5-carbonyl]-4-[(1-methylcyclopropyl)methoxy]benzonitrile]	100 to 1000
N#Cc1ccc(OCC2(C(F)(F)F)CC2)c(C(=O)N2CCc3nn(-c4ccc(F)cc4)cc3C2)c1Cl [Example 509, 2-Chloro-3-[2-(4-fluorophenyl)-2H 4H 5H 6H 7H-pyrazolo[4,3-c]pyridine-5-carbonyl]-4-{[1-(trifluoromethyl)cyclopropyl]methoxy}benzonitrile]	100 to 1000
COc1c(C#N)ccc(N2CCC(F)(F)CC2)c1C(=O)N1Cc2cn(-c3ccc(F)cc3)nc2C1 [Example 510, 4-(4 4-Difluoropiperidin-1-yl)-3-[2-(4-fluorophenyl)-2H 4H 5H 6H-pyrrolo[3,4-c]pyrazole-5-carbonyl]-2-methoxybenzonitrile]	< 100
COc1c(C#N)ccc(OCC(C)(C)C)c1C(=O)N1Cc2cn(-c3ccc(F)cc3)nc2C1 [Example 511]	< 100
COc1c(C#N)ccc(OCC2(C)CC2)c1C(=O)N1Cc2cn(-c3ccc(F)cc3)nc2C1 [Example 512, 3-[2-(4-Fluorophenyl)-2H 4H 5H 6H-pyrrolo[3,4-c]pyrazole-5-carbonyl]-2-methoxy-4-[(1-methylcyclopropyl)methoxy]benzonitrile]	< 100
COc1c(C#N)ccc(OC2CCCC2)c1C(=O)N1Cc2cn(-c3ccc(F)cc3)nc2C1 [Example 513, 4-(Cyclopentyloxy)-3-[2-(4-fluorophenyl)-2H 4H 5H 6H-pyrrolo[3,4-c]pyrazole-5-carbonyl]-2-methoxybenzonitrile]	< 100

Next, values leading:

IC50 [nM]	Structure (SMILES)
< 100	COc1c(C#N)ccc(N2CCC(F)(F)C2)c1C(=O)N1Cc2cn(-c3ccc(F)cc3)nc2C1 [Example 514, 4-(3 3-Difluoropyrrolidin-1-yl)-3-[2-(4-fluorophenyl)-2H 4H 5H 6H-pyrrolo[3,4-c]pyrazole-5-carbonyl]-2-methoxybenzonitrile]
< 100	COc1c(C#N)ccc(OC(C)C)c1C(=O)N1Cc2cn(-c3ccc(F)cc3)nc2C1 [Example 515, 3-[2-(4-Fluorophenyl)-2H 4H 5H 6H-pyrrolo[3,4-c]pyrazole-5-carbonyl]-2-methoxy-4-(propan-2-yloxy)benzonitrile]
< 100	COc1c(C#N)ccc(OC(C)(C)C(F)(F)F)c1C(=O)N1Cc2cn(-c3ccc(F)cc3)nc2C1 [Example 516, 3-[2-(4-Fluorophenyl)-2H 4H 5H 6H-pyrrolo[3,4-c]pyrazole-5-carbonyl]-2-methoxy-4-[(1 1 1-trifluoro-2-methylpropan-2-yl)oxy]benzonitrile]
< 100	COc1c(C#N)ccc(OC(C)CF)c1C(=O)N1Cc2cn(-c3ccc(F)cc3)nc2C1 (stereo not drawn) [Example 517, 3-[2-(4-Fluorophenyl)-2H 4H 5H 6H-pyrrolo[3,4-c]pyrazole-5-carbonyl]-4-[(1-fluoropropan-2-yl)oxy]-2-methoxybenzonitrile]
< 100	CCC(CC)Oc1ccc(C#N)c(OC)c1C(=O)N1Cc2cn(-c3ccc(F)cc3)nc2C1 [Example 518, 3-[2-(4-Fluorophenyl)-2H 4H 5H 6H-pyrrolo[3,4-c]pyrazole-5-carbonyl]-2-methoxy-4-(pentan-3-yloxy)benzonitrile]
< 100	COc1c(C#N)ccc(OC2COC2)c1C(=O)N1Cc2cn(-c3ccc(F)cc3)nc2C1 [Example 519, 3-[2-(4-Fluorophenyl)-2H 4H 5H 6H-pyrrolo[3,4-c]pyrazole-5-carbonyl]-2-methoxy-4-(oxetan-3-yloxy)benzonitrile]
< 100	COc1c(C#N)ccc(OCC(F)F)c1C(=O)N1Cc2cn(-c3ccc(F)cc3)nc2C1 [Example 520, 4-(2 2-Difluoroethoxy)-3-[2-(4-fluorophenyl)-2H 4H 5H 6H-pyrrolo[3,4-c]pyrazole-5-carbonyl]-2-methoxybenzonitrile]
100 to 1000	CCCC(C)Oc1ccc(C#N)c(OC)c1C(=O)N1Cc2cn(-c3ccc(F)cc3)nc2C1 (stereo not drawn) [Example 521, 3-[2-(4-Fluorophenyl)-2H 4H 5H 6H-pyrrolo[3,4-c]pyrazole-5-carbonyl]-2-methoxy-4-(pentan-2-yloxy)benzonitrile]
< 100	COc1c(C#N)ccc(OCC(C)C)c1C(=O)N1Cc2cn(-c3ccc(F)cc3)nc2C1 [Example 522, 3-[2-(4-Fluorophenyl)-2H 4H 5H 6H-pyrrolo[3,4-c]pyrazole-5-carbonyl]-2-methoxy-4-(2-methylpropoxy)benzonitrile]
< 100	COc1c(C#N)ccc(OC(C)C(C)C)c1C(=O)N1Cc2cn(-c3ccc(F)cc3)nc2C1 (stereo not drawn) [Example 523, 3-[2-(4-Fluorophenyl)-2H 4H 5H 6H-pyrrolo[3,4-c]pyrazole-5-carbonyl]-2-methoxy-4-[(3-methylbutan-2-yl)oxy]benzonitrile]
< 100	COc1c(C#N)ccc(OC(C)C2CC2)c1C(=O)N1Cc2cn(-c3ccc(F)cc3)nc2C1 (stereo not drawn) [Example 524, 4-(1-Cyclopropylethoxy)-3-[2-(4-fluorophenyl)-2H 4H 5H 6H-pyrrolo[3,4-c]pyrazole-5-carbonyl]-2-methoxybenzonitrile]
< 100	COc1c(C#N)ccc(OC2(C)CC2)c1C(=O)N1Cc2cn(-c3ccc(F)cc3)nc2C1 [Example 525, 3-[2-(4-Fluorophenyl)-2H 4H 5H 6H-pyrrolo[3,4-c]pyrazole-5-carbonyl]-2-methoxy-4-(1-methylcyclopropoxy)benzonitrile]
< 100	CC(C)(C)COc1ccc(C#N)cc1C(=O)N1Cc2cn(-c3ccc(F)cc3)nc2C1 [Example 526, 4-(2 2-Dimethylpropoxy)-3-[2-(4-fluorophenyl)-2H 4H 5H 6H-pyrrolo[3,4-c]pyrazole-5-carbonyl]benzonitrile]
1000 to 10000	N#Cc1ccc(OCC(F)F)c(C(=O)N2Cc3cn(-c4ccc(F)cc4)nc3C2)c1 [Example 527, 4-(2 2-Difluoroethoxy)-3-[2-(4-fluorophenyl)-2H 4H 5H 6H-pyrrolo[3,4-c]pyrazole-5-carbonyl]benzonitrile]
100 to 1000	N#Cc1ccc(OCC(F)(F)F)c(C(=O)N2Cc3cn(-c4ccc(F)cc4)nc3C2)c1 [Example 528, 3-[2-(4-Fluorophenyl)-2H 4H 5H 6H-pyrrolo[3,4-c]pyrazole-5-carbonyl]-4-(2 2 2-trifluoroethoxy)benzonitrile]
100 to 1000	CC(C)Oc1ccc(C#N)cc1C(=O)N1Cc2cn(-c3ccc(F)cc3)nc2C1 [Example 529, 3-[2-(4-Fluorophenyl)-2H 4H 5H 6H-pyrrolo[3,4-c]pyrazole-5-carbonyl]-4-(propan-2-yloxy)benzonitrile]
100 to 1000	C[C@H](Oc1ccc(C#N)cc1C(=O)N1Cc2cn(-c3ccc(F)cc3)nc2C1)C(F)(F)F [Example 530, 3-[2-(4-Fluorophenyl)-2H 4H 5H 6H-pyrrolo[3,4-c]pyrazole-5-carbonyl]-4-{[(2S)-1 1 1-trifluoropropan-2-yl]oxy}benzonitrile]
100 to 1000	N#Cc1ccc(OCC2CC2)c(C(=O)N2Cc3cn(-c4ccc(F)cc4)nc3C2)c1 [Example 531, 4-(Cyclopropylmethoxy)-3-[2-(4-fluorophenyl)-2H 4H 5H 6H-pyrrolo[3,4-c]pyrazole-5-carbonyl]benzonitrile]
